Drawing on ChEMBL document CHEMBL3045868, “Synthesis and antibacterial activities of para-alkoxy phenyl--ketoaldehyde derivatives” (Med Chem Res, 2013), this text covers MIC, MIC50 and MIC90 for one molecule.

The MIC is the least concentration at which growth counts as inhibited. What is called MIC50 is the lowest concentration that inhibits either 50% of growth or 50% of the strains tested, depending on the study. As a reminder, the MIC90 is an inhibitory concentration at the 90% level, which refers to growth in some studies and to a panel of isolates in others.

≈ marks a conversion by molar mass, not a printed value.

The subject of test [1] is Helicobacter pylori. The experiment in a line: Antibacterial activity against Helicobacter pylori 06-4 assessed as growth inhibition after 16 to 18 hr NCCLS agar dilution method. The class given is functional.
Test [2] deals with Helicobacter pylori. The test is described as follows: Antibacterial activity against Helicobacter pylori 06-6 assessed as growth inhibition after 16 to 18 hr NCCLS agar dilution method. The class given is functional.
Test [3] concerns Helicobacter pylori. The test is described as follows: Antibacterial activity against Helicobacter pylori 06-8 assessed as growth inhibition after 16 to 18 hr NCCLS agar dilution method. The class given is functional. A general note: In agar dilution, organisms are placed on agar that contains the substance at set levels.
The test system of test [4] is Helicobacter pylori. The test is described as follows: Antibacterial activity against Helicobacter pylori 06-5 assessed as growth inhibition after 16 to 18 hr NCCLS agar dilution method. The class given is functional.
Test [5] has as its system Helicobacter pylori. The experiment in a line: Antibacterial activity against Helicobacter pylori 05-12 assessed as growth inhibition after 16 to 18 hr NCCLS agar dilution method. The class given is functional.
The subject of test [6] is Helicobacter pylori. The experiment in a line: Antibacterial activity against Helicobacter pylori 06-2 assessed as growth inhibition after 16 to 18 hr NCCLS agar dilution method. It counts as functional.
The subject of test [7] is Helicobacter pylori. The experiment in a line: Antibacterial activity against Helicobacter pylori 05-14 assessed as growth inhibition after 16 to 18 hr NCCLS agar dilution method. It counts as functional.
The test system of test [8] is Helicobacter pylori. The experiment in a line: Antibacterial activity against Helicobacter pylori 05-1 assessed as growth inhibition after 16 to 18 hr NCCLS agar dilution method. The class given is functional.
For test [9], the system named is Helicobacter pylori. The experiment in a line: Antibacterial activity against Helicobacter pylori 05-2 assessed as growth inhibition after 16 to 18 hr NCCLS agar dilution method. The class given is functional.
Test [10] deals with Pseudomonas aeruginosa. The experiment in a line: Antibacterial activity against Pseudomonas aeruginosa ATCC 27853 assessed as growth inhibition after 16 to 18 hr NCCLS agar dilution method. The class given is functional.
Test [11] has as its system Helicobacter pylori. The test is described as follows: Antibacterial activity against Helicobacter pylori 05-4 assessed as growth inhibition after 16 to 18 hr NCCLS agar dilution method. The class given is functional, 05-Apr.
Test [12] relates to Helicobacter pylori. The test is described as follows: Antibacterial activity against Helicobacter pylori 06-3 assessed as growth inhibition after 16 to 18 hr NCCLS agar dilution method. It counts as functional.
Test [13] deals with Escherichia coli. The experiment in a line: Antibacterial activity against Escherichia coli ATCC 25922 assessed as growth inhibition after 16 to 18 hr NCCLS agar dilution method. The class given is functional.
Test [14] has as its system Helicobacter pylori. The test is described as follows: Antibacterial activity against Helicobacter pylori assessed as growth inhibition after 16 to 18 hr NCCLS agar dilution method. It counts as functional.
The test system of test [15] is Staphylococcus aureus. The experiment in a line: Antibacterial activity against Staphylococcus aureus ATCC 25923 assessed as growth inhibition after 16 to 18 hr by NCCLS agar dilution method. The class given is functional.
Test [16] concerns Helicobacter pylori. The experiment in a line: Antibacterial activity against Helicobacter pylori 05-5 assessed as growth inhibition after 16 to 18 hr NCCLS agar dilution method. It counts as functional.
Test [17] concerns Helicobacter pylori. The test is described as follows: Antibacterial activity against Helicobacter pylori 06-1 assessed as growth inhibition after 16 to 18 hr NCCLS agar dilution method. The class given is functional.
Test [18] relates to Helicobacter pylori. The experiment in a line: Antibacterial activity against Helicobacter pylori 05-9 assessed as growth inhibition after 16 to 18 hr NCCLS agar dilution method. It counts as functional.
Test [19] deals with Helicobacter pylori. The experiment in a line: Antibacterial activity against Helicobacter pylori 05-3 assessed as growth inhibition after 16 to 18 hr NCCLS agar dilution method. The class given is functional.
For test [20], the system named is Helicobacter pylori. The experiment in a line: Antibacterial activity against Helicobacter pylori 06-7 assessed as growth inhibition after 16 to 18 hr NCCLS agar dilution method. It counts as functional.
Test [21] relates to Helicobacter pylori. The experiment in a line: Antibacterial activity against Helicobacter pylori ATCC 11637 assessed as growth inhibition after 16 to 18 hr NCCLS agar dilution method. The class given is functional.

In the case of `CC[C@H]1OC(=O)[C@H](C)[C@@H](O[C@H]2C[C@@](C)(OC)[C@@H](O)[C@H](C)O2)[C@H](C)[C@@H](O[C@@H]2O[C@H](C)C[C@H](N(C)C)[C@H]2O)[C@](C)(OC)C[C@@H](C)C(=O)[C@H](C)[C@@H](O)[C@]1(C)O` [CLARITHROMYCIN], the MIC in test [1] is over 128 µg/mL; in test [2], 128 µg/mL (≈ 171 µM); in [3] it was over 128 µg/mL; in test [4], over 128 µg/mL; in test [5], over 128 µg/mL; in test [6], over 128 µg/mL. Further, the MIC in test [7] is over 128 µg/mL; in test [8], over 128 µg/mL; in test [9], 64 µg/mL (≈ 85.6 µM); in test [10], over 64 µg/mL; in [11], over 128 µg/mL; in test [12] it was over 128 µg/mL. For the same molecule, the minimal inhibitory concentration (MIC) was 32 µg/mL (≈ 42.8 µM) in test [13]; 0.12 µg/mL (≈ 0.16 µM) in test [15]; over 128 µg/mL in [16]; 64 µg/mL (≈ 85.6 µM) in test [17]; over 128 µg/mL in test [18]; 64 µg/mL (≈ 85.6 µM) in test [19]. Moreover, the minimum inhibitory concentration (MIC) is 128 µg/mL (≈ 171 µM) in [20] and 32 µg/mL (≈ 42.8 µM) in test [21]. Moreover, in test [14], the MIC50 was over 128 µg/mL. In addition, the MIC90 in test [14] is over 128 µg/mL.
